Reference: patent US12274732B2, “Anti-pathogen composition and methods of use thereof” (Tenfold Technologies, LLC, priority 2017, dated 2025)
Values after ≈ are worked out from the molar mass of the structure shown. Where two headings read alike, the source gives them in different places. Positions of bridges follow the written chain, without caps; N, C: chain ends. Non-standard residues stand in square brackets, D forms with d. Residues, ends and D or L forms follow the SMILES beside them. ξ: configuration not given here. *: point of attachment. Pentadecanoyl(3ξ-OH,15-Gua) = N=C(N)NCCCCCCCCCCCCC(O)CC(=O)*; d(aThr) = C[C@@H](O)[C@@H](N)C(=O)O; Thr(3ξ) = CC(O)[C@H](N)C(=O)O

Columns and labels:
Assay type in all cases: cell-based
Candida albicans = test: In vitro antimicrobial activity against Candida albicans; details: for C. albicans IC50 (50% growth inhibitory concentration) / C. albicans MIC (minimum inhibitory concentration): Table 12; for C. albicans IC50 (50% growth inhibitory concentration): highest test conc. fusaricidins 20, controls 100 μg/mL; for C. albicans MIC (minimum inhibitory concentration): lowest concentration that allows no detectable growth; for IC50: Candida albicans, test conc. 200-8 μg/mL (extracts), 100-4 or 10-0.4 μg/mL (drugs), read-out: C. albicans IC50; for C. albicans IC50: Table 5, extracts tested at 8-200 μg/mL
Method: (§1) Fifty organic extracts were prepared from 25 whole broth of four microbial strains (MS1479, MS2379, MS2820, and MS2414), which were fermented in different media for the antimicrobial testing. Note each whole broth culture generated one n-butanol extract from cultural supernatant and one methanol extract from cell pellets.
(§2) The antimicrobial activities of the 50 organic extracts were studied against three fungal pathogens—Candida albicans, Aspergillus fumigatus, and Cryptococcus neoformans—and five bacterial strains-Methicillin-resistant Staphylococcus aureus (MIRSA), Escherichia coli, Pseudomonas aeruginosa, Klebsiella pneumoniae, and Vancomycin-resistant Enterococcus faecium (VRE) (FIG. 2). The test concentrations for all extracts were in the range of 8-200 μg/mL (Table 3).
(§3) The antimicrobial activities of identified fusaricidins were in an in vitro study against several clinically relevant microbes. […] For the in-vitro assays against bacteria, fusaricidins were tested against methicillin-resistant Staphylococcus aureus, vancomycin-resistant Enterococcus faecium, Escherichia coli, and Pseudomonas aeruginosa using four antibacterial drugs methicillin, vancomycin, cefotaxime, and meropenem as controls. […] Fusaricidins were also tested against fungal pathogens Cryptococcus neoformans, Candida albicans, and Aspergillus fumigatus and compared with two antifungal drugs, fluconazole and amphotericin B (Table 13). Moreover, the anti-parasitic activity was also tested against L. donovani and T. brucei (Table 14).

Cryptococcus neoformans = test: In vitro antimicrobial activity against Cryptococcus neoformans; details: for C. neoformans IC50 (50% growth inhibitory concentration) / C. neoformans MIC (minimum inhibitory concentration): Table 12; for C. neoformans IC50 (50% growth inhibitory concentration): highest test conc. fusaricidins 20, controls 100 μg/mL; for C. neoformans MIC (minimum inhibitory concentration): lowest concentration that allows no detectable growth; for IC50: Cryptococcus neoformans, test conc. 200-8 μg/mL (extracts), 100-4 or 10-0.4 μg/mL (drugs), read-out: C. neoformans IC50; for C. neoformans IC50: Table 5, extracts tested at 8-200 μg/mL
Method: as §1, §2
The potent activities against the fungal pathogen C. neoformans and the gram-positive bacteria S. aureus, MRSA, and M. intracellulare were also shown in the crude extracts (FIG. 7).
as §3

Pseudomonas aeruginosa = test: In vitro antimicrobial activity against Pseudomonas aeruginosa; details: for MIC: read-out: P. aeruginosa MIC (minimum inhibitory concentration)
Method: as §1, §2, §3

Aspergillus fumigatus = test: In vitro antimicrobial activity against Aspergillus fumigatus; details: for A. fumigatus IC50 (50% growth inhibitory concentration) / A. fumigatus MIC (minimum inhibitory concentration): Table 12; for A. fumigatus IC50 (50% growth inhibitory concentration): highest test conc. fusaricidins 20, controls 100 μg/mL; for A. fumigatus MIC (minimum inhibitory concentration): lowest concentration that allows no detectable growth; for IC50: Aspergillus fumigatus, test conc. 200-8 μg/mL (extracts), 100-4 or 10-0.4 μg/mL (drugs), read-out: A. fumigatus IC50; for A. fumigatus IC50: Table 5, extracts tested at 8-200 μg/mL
Method: as §1, §2, §3

[1] = test system: Vancomycin-resistant Enterococcus faecium (VRE); test: In vitro antimicrobial activity against VRE; details: for MIC: read-out: VRE MIC (minimum inhibitory concentration); for VRE IC50: Table 5, extracts tested at 8-200 μg/mL
Method: as §1, §2, §3

Escherichia coli = test: In vitro antimicrobial activity against Escherichia coli; details: for MIC: read-out: E. coli MIC (minimum inhibitory concentration)
Method: as §1, §2, §3

[2] = test system: Methicillin-resistant Staphylococcus aureus (MRSA); test: In vitro antimicrobial activity against MRSA; details: for MIC: read-out: MRSA MIC (minimum inhibitory concentration)
Method: as §1, §2, §3

Klebsiella pneumoniae = test: In vitro antimicrobial activity against Klebsiella pneumoniae; details: Klebsiella pneumoniae; test conc. 200-8 μg/mL (extracts), 100-4 or 10-0.4 μg/mL (drugs); read-out: K pneumoniae IC50
Method: as §1, §2

[3] = Table 13, Pseudomonas aeruginosa ATCC 2108
[4] = Table 13, Vancomycin-resistant Enterococcus faecium ATCC 700221
[5] = Table 13, Escherichia coli ATCC 2452
[6] = Table 13, Methicillin-resistant Staphylococcus aureus ATCC 1708
[7] = ATCC2108, Table 13, Pseudomonas aeruginosa ATCC 2108, read-out: P. aeruginosa IC50 (50% growth inhibitory concentration)
[8] = ATCC2108, Table 13, Pseudomonas aeruginosa ATCC 2108
[9] = Pseudomonas aeruginosa, test conc. 200-8 μg/mL (extracts), 100-4 or 10-0.4 μg/mL (drugs), read-out: P. aeruginosa IC50
[10] = ATCC 700221 / VRE, Table 13, Vancomycin-resistant Enterococcus faecium ATCC 700221, read-out: VRE IC50 (50% growth inhibitory concentration)
[11] = ATCC 700221 / VRE, Table 13, Vancomycin-resistant Enterococcus faecium ATCC 700221
[12] = test conc. 200-8 μg/mL (extracts), 100-4 or 10-0.4 μg/mL (drugs), read-out: VRE IC50
[13] = ATCC2452, Table 13, Escherichia coli ATCC 2452, read-out: E. coli IC50 (50% growth inhibitory concentration)
[14] = ATCC2452, Table 13, Escherichia coli ATCC 2452
[15] = Escherichia coli, test conc. 200-8 μg/mL (extracts), 100-4 or 10-0.4 μg/mL (drugs), read-out: E. coli IC50
[16] = ATCC 1708 / MRSA, Table 13, Methicillin-resistant Staphylococcus aureus ATCC 1708, read-out: MRSA IC50 (50% growth inhibitory concentration)
[17] = ATCC 1708 / MRSA, Table 13, Methicillin-resistant Staphylococcus aureus ATCC 1708
[18] = Staphylococcus aureus, MRSA, test conc. 200-8 μg/mL (extracts), 100-4 or 10-0.4 μg/mL (drugs), read-out: MRS IC50

Molecule: CC(C)[C@@H]1NC(=O)[C@@H](C(C)C)NC(=O)[C@@H](NC(=O)CC(O)CCCCCCCCCCCCN=C(N)N)[C@@H](C)OC(=O)[C@@H](C)NC(=O)[C@@H](CC(N)=O)NC(=O)[C@@H]([C@@H](C)O)NC1=O (stereo partly shown) [Fusaricidin A (SQ-1-43 A)] ({Pentadecanoyl(3ξ-OH,15-Gua)}-T[dV]V[d(aThr)][dN][dA]; ester 1-C)
- C. albicans IC50 (50% growth inhibitory concentration) (Candida albicans): 5.1 µg/mL
- C. albicans MIC (minimum inhibitory concentration) (Candida albicans): 10.0 µg/mL
- C. neoformans IC50 (50% growth inhibitory concentration) (Cryptococcus neoformans): 0.5 µg/mL
- C. neoformans MIC (minimum inhibitory concentration) (Cryptococcus neoformans): 1.3 µg/mL
- P. aeruginosa IC50 (50% growth inhibitory concentration) (Pseudomonas aeruginosa; [3]): >20/>20 μg/mL
- P. aeruginosa MIC (minimum inhibitory concentration) (Pseudomonas aeruginosa; [3]): >20/>20 μg/mL
- A. fumigatus IC50 (50% growth inhibitory concentration) (Aspergillus fumigatus): >20/>20 μg/mL
- A. fumigatus MIC (minimum inhibitory concentration) (Aspergillus fumigatus): >20/>20 μg/mL
- VRE IC50 (50% growth inhibitory concentration) [1, 4]: 3.6 µg/mL
- VRE MIC (minimum inhibitory concentration) [1, 4]: 5.0 µg/mL
- E. coli IC50 (50% growth inhibitory concentration) (Escherichia coli; [5]): >20/>20 μg/mL
- E. coli MIC (minimum inhibitory concentration) (Escherichia coli; [5]): >20/>20 μg/mL
- MRSA IC50 (50% growth inhibitory concentration) [2, 6]: 2.3 µg/mL
- MRSA MIC (minimum inhibitory concentration) [2, 6]: 2.5 µg/mL

Molecule: CC(C)[C@@H]1NC(=O)[C@@H](C(C)C)NC(=O)[C@@H](NC(=O)CC(O)CCCCCCCCCCCCN=C(N)N)C(C)OC(=O)[C@@H](C)NC(=O)[C@@H](CCC(N)=O)NC(=O)[C@@H]([C@H](C)O)NC1=O (stereo partly shown) [Fusaricidin B (SQ-1-43B)] ({Pentadecanoyl(3ξ-OH,15-Gua)}-[Thr(3ξ)][dV]V[dT][dQ][dA]; ester 1-C)
- C. albicans IC50 (50% growth inhibitory concentration) (Candida albicans): 9.1 µg/mL
- C. albicans MIC (minimum inhibitory concentration) (Candida albicans): 10.0 µg/mL
- C. neoformans IC50 (50% growth inhibitory concentration) (Cryptococcus neoformans): 1.1 µg/mL
- C. neoformans MIC (minimum inhibitory concentration) (Cryptococcus neoformans): 2.5 µg/mL
- P. aeruginosa IC50 (50% growth inhibitory concentration) (Pseudomonas aeruginosa; [3]): >20/>20 μg/mL
- P. aeruginosa MIC (minimum inhibitory concentration) (Pseudomonas aeruginosa; [3]): >20/>20 μg/mL
- A. fumigatus IC50 (50% growth inhibitory concentration) (Aspergillus fumigatus): >20/>20 μg/mL
- A. fumigatus MIC (minimum inhibitory concentration) (Aspergillus fumigatus): >20/>20 μg/mL
- VRE IC50 (50% growth inhibitory concentration) [1, 4]: 8.7 µg/mL
- VRE MIC (minimum inhibitory concentration) [1, 4]: 20.0 µg/mL
- E. coli IC50 (50% growth inhibitory concentration) (Escherichia coli; [5]): >20/>20 μg/mL
- E. coli MIC (minimum inhibitory concentration) (Escherichia coli; [5]): >20/>20 μg/mL
- MRSA IC50 (50% growth inhibitory concentration) [2, 6]: 4.2 µg/mL
- MRSA MIC (minimum inhibitory concentration) [2, 6]: 5.0 µg/mL

Molecule: C[C@@H](O)[C@H]1C(=O)N2C(C(=O)O)=C(S[C@@H]3CN[C@H](C(=O)N(C)C)C3)[C@H](C)[C@H]12 [Meropenem]
- IC50 (Candida albicans): > 100 µg/mL
- C. albicans IC50 (Candida albicans): >100 µg/mL
- IC50 (Cryptococcus neoformans): > 100 µg/mL
- C. neoformans IC50 (Cryptococcus neoformans): >100 µg/mL
- IC50 (Pseudomonas aeruginosa; [7]): 5.9 µg/mL (≈ 15.4 µM)
- MIC (Pseudomonas aeruginosa; [8]): 25 µg/mL (≈ 65.2 µM)
- IC50 (Pseudomonas aeruginosa; [9]): > 100 µg/mL
- IC50 (Aspergillus fumigatus): > 100 µg/mL
- A. fumigatus IC50 (Aspergillus fumigatus): >100 µg/mL
- IC50 [1, 10]: > 100 µg/mL
- MIC [1, 11]: > 100 µg/mL
- VRE IC50 [1]: >100 µg/mL
- IC50 [1, 12]: > 100 µg/mL
- IC50 (Escherichia coli; [13]): 5.4 µg/mL (≈ 14.1 µM)
- MIC (Escherichia coli; [14]): 12.5 µg/mL (≈ 32.6 µM)
- IC50 (Escherichia coli; [15]): 11.5 µg/mL (≈ 30 µM)
- IC50 [2, 16]: 5.7 µg/mL (≈ 14.9 µM)
- MIC [2, 17]: 12.5 µg/mL (≈ 32.6 µM)
- IC50 [2, 18]: 2.75 µg/mL (≈ 7.17 µM)
- IC50 (Klebsiella pneumoniae): 18.1 µg/mL (≈ 47.3 µM)

Molecule: COc1cccc(OC)c1C(=O)N[C@@H]1C(=O)N2[C@@H]1SC(C)(C)[C@@H]2C(=O)O [Methicillin]
- IC50 (Candida albicans): > 100 µg/mL
- C. albicans IC50 (Candida albicans): >100 µg/mL
- IC50 (Cryptococcus neoformans): > 100 µg/mL
- C. neoformans IC50 (Cryptococcus neoformans): >100 µg/mL
- IC50 (Pseudomonas aeruginosa; [7]): 76 µg/mL (≈ 200 µM)
- MIC (Pseudomonas aeruginosa; [8]): > 100 µg/mL
- IC50 (Pseudomonas aeruginosa; [9]): 95.4 µg/mL (≈ 251 µM)
- IC50 (Aspergillus fumigatus): > 100 µg/mL
- A. fumigatus IC50 (Aspergillus fumigatus): >100 µg/mL
- IC50 [1, 10]: > 100 µg/mL
- MIC [1, 11]: > 100 µg/mL
- VRE IC50 [1]: >100 µg/mL
- IC50 [1, 12]: > 100 µg/mL
- IC50 (Escherichia coli; [13]): > 100 µg/mL
- MIC (Escherichia coli; [14]): > 100 µg/mL
- IC50 (Escherichia coli; [15]): > 100 µg/mL
- IC50 [2, 16]: 12.1 µg/mL (≈ 31.8 µM)
- MIC [2, 17]: 50 µg/mL (≈ 131 µM)
- IC50 [2, 18]: 19 µg/mL (≈ 49.9 µM)
- IC50 (Klebsiella pneumoniae): > 100 µg/mL

Molecule: Fusaricidin B
- activity against VRE (in words) [1]: strong activity
- activity against MRSA (in words) [2]: strong activity
